Assay results from PubChem BioAssay (NCI).
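Results reflect a 48-hour exposure of cells in 96-well plates to compound at five concentrations. GI50 = concentration required for 50% inhibition of growth. TGI marks complete inhibition of growth.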

Tests used:
Assay in all cases: NCI tumour cell line growth inhibition, 48 h; in the data active = GI50 below about 0.43 µM; inactive = the rest
[1] = system: MALME-3M melanoma
[2] = system: UACC-62 melanoma
[3] = system: NCI-H23 lung
[4] = system: SK-MEL-2 melanoma
[5] = system: NCI/ADR-RES ovarian
[6] = system: MDA-MB-231 breast
[7] = system: SF-295 CNS
[8] = system: LOX IMVI melanoma
[9] = system: IGROV1 ovarian
[10] = system: HT29 colon
[11] = system: PC-3 prostate
[12] = system: NCI-H460 lung
[13] = system: U251 CNS
[14] = system: COLO 205 colon
[15] = system: SK-OV-3 ovarian
[16] = system: HCT-15 colon
[17] = system: SK-MEL-5 melanoma
[18] = system: MDA-N
[19] = system: HL-60(TB) leukemia
[20] = system: MOLT-4 leukemia
[21] = system: A498 renal
[22] = system: SF-268 CNS
[23] = system: M14 melanoma
[24] = system: HOP-92 NSCLC
[25] = system: SNB-19 CNS
[26] = system: NCI-H522 lung
[27] = system: SR leukemia
[28] = system: SW-620 colon
[29] = system: OVCAR-5 ovarian
[30] = system: SN12C renal
[31] = system: CAKI-1 renal
[32] = system: T-47D breast
[33] = system: HCT-116 colon
[34] = system: KM12 colon
[35] = system: BT-549 breast
[36] = system: OVCAR-3 ovarian
[37] = system: RPMI-8226 leukemia
[38] = system: HS 578T breast
[39] = system: SF-539 CNS
[40] = system: DU-145 prostate
[41] = system: UACC-257 melanoma
[42] = system: TK-10 renal
[43] = system: OVCAR-8 ovarian
[44] = system: SK-MEL-28 melanoma
[45] = system: K-562 leukemia
[46] = system: NCI-H226 lung
[47] = system: HOP-62 NSCLC
[48] = system: A549 NSCLC
[49] = system: MCF7 breast
[50] = system: EKVX NSCLC
[51] = system: UO-31 renal
[52] = system: 786-0 renal
[53] = system: ACHN renal
[54] = system: RXF 393 renal
[55] = system: SNB-75 CNS
[56] = system: HCC-2998 colon
[57] = system: CCRF-CEM leukemia
[58] = system: MDA-MB-435
[59] = system: OVCAR-4 ovarian

C=C(CC(=O)O)C(=O)O (tested in a mixture with another compound)
inactive: GI50 [1] > 50 µg/mL | GI50 [2] > 50 µg/mL | GI50 [3] > 50 µg/mL | GI50 [4] > 50 µg/mL | GI50 [5] > 50 µg/mL | GI50 [6] > 50 µg/mL | GI50 [7] > 50 µg/mL | GI50 [8] > 50 µg/mL | GI50 [9] > 50 µg/mL | GI50 [10] > 50 µg/mL | GI50 [11] > 50 µg/mL | GI50 [12] > 50 µg/mL | GI50 [13] > 50 µg/mL | GI50 [14] > 50 µg/mL | GI50 [15] > 50 µg/mL | GI50 [16] > 50 µg/mL | GI50 [17] > 50 µg/mL | GI50 [18] > 50 µg/mL | GI50 [19] 8.94 µg/mL | GI50 [20] > 50 µg/mL | GI50 [21] > 50 µg/mL | GI50 [22] > 50 µg/mL | GI50 [23] > 50 µg/mL | GI50 [24] > 50 µg/mL | GI50 [25] > 50 µg/mL | GI50 [26] > 50 µg/mL | GI50 [27] > 50 µg/mL | GI50 [28] > 50 µg/mL | GI50 [29] > 50 µg/mL | GI50 [30] > 50 µg/mL | GI50 [31] > 50 µg/mL | GI50 [32] > 50 µg/mL | GI50 [33] > 50 µg/mL | GI50 [34] > 50 µg/mL | GI50 [35] > 50 µg/mL | GI50 [36] > 50 µg/mL | GI50 [37] > 50 µg/mL | GI50 [38] > 50 µg/mL | GI50 [39] > 50 µg/mL | GI50 [40] > 50 µg/mL | GI50 [41] > 50 µg/mL | GI50 [42] > 50 µg/mL | GI50 [43] > 50 µg/mL | GI50 [44] > 50 µg/mL | GI50 [45] > 50 µg/mL | GI50 [46] > 50 µg/mL | GI50 [47] > 50 µg/mL | GI50 [48] > 50 µg/mL | GI50 [49] > 50 µg/mL | GI50 [50] 40.6 µg/mL | GI50 [51] > 50 µg/mL | GI50 [52] > 50 µg/mL | GI50 [53] > 50 µg/mL | GI50 [54] 10.2 µg/mL
> 50 µg/mL: TGI [1] | TGI [2] | TGI [3] | TGI [4] | TGI [5] | TGI [6] | TGI [7] | TGI [8] | TGI [9] | TGI [10] | TGI [11] | TGI [12] | TGI [13] | TGI [14] | TGI [15] | TGI [16] | TGI [17] | TGI [18] | TGI [20] | TGI [21] | TGI [22] | TGI [23] | TGI [24] | TGI [25] | TGI [26] | TGI [27] | TGI [28] | TGI [29] | TGI [30] | TGI [31] | TGI [32] | TGI [33] | TGI [34] | TGI [35] | TGI [36] | TGI [37] | TGI [38] | TGI [39] | TGI [40] | TGI [41] | TGI [42] | TGI [43] | TGI [44] | TGI [45] | TGI [46] | TGI [47] | TGI [48] | TGI [49] | TGI [50] | TGI [51] | TGI [52] | TGI [53] | TGI [54]
17.2 µg/mL: TGI [19]

CCOC(=O)CCC(NC(=O)OCc1ccccc1)C(=O)NC(CCC(=O)OCC)C(=O)NNC(=O)OC(C)(C)C (configuration not stated)
> 100 µM: TGI [1] | TGI [2] | TGI [3] | TGI [4] | TGI [5] | TGI [7] | TGI [9] | TGI [55] | TGI [56] | TGI [11] | TGI [12] | TGI [13] | TGI [14] | TGI [57] | TGI [15] | TGI [16] | TGI [17] | TGI [18] | TGI [19] | TGI [20] | TGI [23] | TGI [58] | TGI [24] | TGI [25] | TGI [26] | TGI [27] | TGI [29] | TGI [30] | TGI [31] | TGI [32] | TGI [33] | TGI [34] | TGI [35] | TGI [36] | TGI [37] | TGI [38] | TGI [40] | TGI [43] | TGI [44] | TGI [45] | TGI [46] | TGI [47] | TGI [49] | TGI [51] | TGI [54]

COc1cc(S(=O)(=O)Nc2ccc(-c3csc(N4C(=O)C(Cl)C4c4ccccc4)n3)cc2)ccc1Cl (configuration not stated)
83.2 µM: TGI [35]
39.9 µM: TGI [43]
94.4 µM: TGI [50]
51.2 µM: TGI [2]
89.3 µM: TGI [3]
77.1 µM: TGI [32]
33.9 µM: TGI [26]
87.3 µM: TGI [59]
49.1 µM: TGI [55]
68.8 µM: TGI [21]
33.7 µM: TGI [24]
49 µM: TGI [1] | TGI [52]
> 100 µM: TGI [4] | TGI [5] | TGI [7] | TGI [10] | TGI [11] | TGI [12] | TGI [14] | TGI [57] | TGI [15] | TGI [16] | TGI [18] | TGI [19] | TGI [20] | TGI [22] | TGI [58] | TGI [25] | TGI [27] | TGI [28] | TGI [29] | TGI [31] | TGI [33] | TGI [34] | TGI [36] | TGI [37] | TGI [38] | TGI [39] | TGI [41] | TGI [42] | TGI [44] | TGI [45] | TGI [47] | TGI [48] | TGI [49] | TGI [53]
63.1 µM: TGI [51]
88.1 µM: TGI [17]
94 µM: TGI [30]
38.7 µM: TGI [40]
59.2 µM: TGI [23]
23.1 µM: TGI [54]
22.4 µM: TGI [9]
